# Measured values: US6093720A, “Trans apovincaminic acid ester derivatives” (Richter Gedeon Vegyeszeti GmbH, priority 1995, dated 2000)
# Values joined by “and” are separate entries in the source; they are usually repeats but may differ in a detail not shown here. Identical values can stand only once. Counter-ions that a name gives are not always drawn.
# Experiments:
# [1] = Antiischemic effect on bilateral (carotid) artery ligation model, mortality; format: in vivo, mice; details: for mortality at 2 mg/kg / ED50: Mus musculus, ip; for mortality at 2 mg/kg: 24 h, 30 minutes before 5-minute bilateral carotid ligation, control mortality 70%; for mortality at 2 mg/kg / antiischemic activity, in words: 2 mg/kg i.p.; for ED50: dose diminishing the mortality by 50% in comparison to the untreated control group; for antiischemic activity, in words: bilateral artery ligation, mice
# Experimental: 1. Antiischemic Effect (On Bilateral Artery Ligation Model)
# N. Himori et al.: Cerebral ischemia model with conscious mice involvement of NMDA receptor activation and derangement of learning and memory ability [J. Pharmacol. Meth. 23, 311-327 (1990)].
# Carotid arteries of mice (weighing 30 to 32 g each) were exposed bilaterally under anaesthesia by 450 mg/kg of intraperitoneal (i.p.) chloral hydrate. The sympathetic and vagal nerves were separated and a loose ligation was bilaterally placed below the carotid arteries. Both ends of the ligation were led out on the back, behind the ears. Next day, in conscious state both ends of the ligation were pulled resulting in the stopping of blood supply through the carotid arteries. This was maintained for 5 minutes, then released to provide the reperfusion. The number of animals died during the 5-minute period and the following 24 hours were registered. The calculation of significance was performed by the chi^2 test. The pre-treatment with the compound was carried out intraperitoneally (i.p.) 30 minutes before the ligation.
# The transient dramatic decrease in the cerebral blood supply, then the starting of reperfusion after stopping the ligation leads to the formation of extremely toxic oxygen free radicals (superoxide radical, hydrogen peroxide). […] [ED50 is the dose (as mg/kg) diminishing the mortality by 50% in comparison to the untreated is control group].
# [2] = tested on: Fe^2+ -Induced Lipid Peroxidation in Brain Homogenate; experiment: Fe^2+-induced (non-enzymatic) lipid peroxidation in brain homogenate (ANI); format: biochemical, rat (Hannover-Wistar); details: for IC50: Fe^2+-induced lipid peroxidation, rat brain homogenate, 37° C., 20 minutes, pH 7.4; for antioxidant activity in Fe^2+-induced lipid peroxidation, in words: comparison with idebenone, DL-α-tocopherol or silymarin
# Experimental: Effect on the Fe^2+ -Induced Lipid Peroxidation in Brain Homogenate
# After decapitating Hannover-Wistar rats weighing 150-220 g each, the whole brain was homogenized in 9 volumes of ice-cold Krebs-Ringer's buffer containing 15 mM HEPES, (4-(2-hydroxyethyl)-1-piperazinylethanesulfonic acid) (pH 7.4), 140 mM NaCl7 3.6 mM KCl, 1.5 mM CaCl2, 0.7 mM MgCl2, 1.4 mM KH2 PO4 and 10 glucose. Then the protein content of the solution was determined and adjusted to 10 mg/ml concentration.
# After adding the inhibitory agent to be tested in a volume of 5 μl to 200 μl of the homogenate, the incubation mixture was incubated at 37° C. for 20 minutes. The Fe^2+ -induced lipid peroxidation was accomplished by adding 5 μl of 8 mM Fe2 (NH4)2 (SO4)2 solution. After passing of the incubation time, the reaction was stopped by adding 1 ml of a stopping solution containing 0.8 M HCl and 12.5% trichloroacetic acid, then the samples were centrifuged at 2000 g in a Janetzki K70 apparatus at 4° C. for 10 minutes.
# To a 0.5 ml portion of the supernatant, 1 ml of 1% thiobarbituric acid solution was added, then the samples were placed in a water bath of 100° C. for 20 minutes. The color intensity developed was determined at 535 nm with a Hitachi 150-20 spectrophotometer by using malondialdehyde bis(diethylacetal) as reference compound.
# ANI: non-enzymatically (Fe^2+) induced lipid peroxidation test
# [3] = tested on: NADPH-Induced Lipid Peroxidation in Brain Microsomes; experiment: NADPH-induced (enzymatic) lipid peroxidation in brain microsomes (AEI); format: biochemical, rat (male Hannover-Wistar); details: for IC50: NADPH-induced lipid peroxidation, rat brain microsomes, 37° C., 20 minutes, pH 6.8; for inhibition of NADPH-induced lipid peroxidation relative to silymarin (times as strongly): compared with silymarin; for antioxidant effect in NADPH-induced lipid peroxidation, in words: comparison with reference compounds
# Experimental: Effect on the NADPH-Induced Lipid Peroxidation in Brain Microsomes
# Male Hannover-Wistar rats with a body weight of 150-250 g were used for the preparation of microsomes. After decapitation, the whole brain was removed and homogenized in a 10-fold volume of ice-cold 0.25 M saccharose solution. The homogenate was centrifuged in a Hitachi CR 26H equipment at 15000 g at 4° C. for 10 minutes, then the supernatant was collected and centrifuged in a Hitachi SCP 85H apparatus at 78000 g at 4° C. for 60 minutes. After suspending the precipitate in 0.15 M KCl solution, the protein content of the obtained solution was determined and then adjusted to 10 mg/ml concentration. The microsome thus obtained was frozen in a dry ice-acetone mixture and stored at -70° C. until use. The components of the incubation mixture were: 50 mM TRIS-HCl (pH 6.8), 0.2 mM FeCl3, 1 mM KH2 PO4, 0.5 mM ADP, 0.2 mg of microsomes as well as the compound to be tested. The incubation was carried out with a final volume of 1 ml and with an incubation time of 20 minutes at a temperature of 37° C. The lipid peroxidation was induced by adding 0.4 mM NADPH.
# The formation of malondialdehyde was determined by using thiobarbituric acid. After stopping the reaction, 1 ml of 1% thiobarbituric acid solution each was weighed to the samples, which were then placed in a water bath of about 100° C. for 10 minutes. Subsequently, the samples were centrifuged at 2000 g in a Janetzki K70 apparatus at 4° C. for 10 minutes. The absorbance values of the colored supernatant were measured at 535 nm in a Hitachi 150-20 spectrophotometer. Malondialdehyde bis(diethylacetal) was used as reference compound.
# [4] = Diazepam-induced anterograde amnesia (passive avoidance); format: in vivo, NMRI mice; details: for Inhibition of the diazepam-induced amnesia %: 1 hour before learning, diazepam 3 mg/kg i.p.; for antiamnesic activity, in words: diazepam-induced anterograde amnesia, 0.1 and 10 mg/kg p.o.
# Text: 2. Diazepam-Induced Anterograde Amnesia C. L. Broekkamp et al.: The comparative effects of benzodiazepines, progabide and PK 9084 on acquisition of passive avoidance in mice [Psychopharmacology (Berlin) 83, 122-125 (1984)]. The memory test was accomplished on NMRI mice weighing 25 to 28 g each by using the passive avoidance, a method based on the genetically determined nyctophilic behavior of rodents. During the learning period, the pre-selected animals (mice entering the dark space from the illuminated space within 30 seconds) were placed in an illuminated space. After entering the dark space, the animal received an electric shock (1 mA for […]) onto its planta within 30 seconds, then the time until entry to the dark space (latency period) was registered. After 24 hours, the animals were placed again in the illuminated space and the time until crossing over to the dark space (retention time=T with a time limit of 300 seconds) was measured. For inducing an anterograde amnesia, the animals were treated intraperitoneally with 3 mg/kg of diazepam 30 minutes before learning. The compounds were administered orally in 0.1 or 10 mg/kg doses, respectively 1 hour before learning. [formula]
Compound,mortality at 2 mg/kg [1],ED50 [1],"antiischemic activity, in words [1]",IC50 [2],IC50 [3],"antioxidant activity in Fe^2+-induced lipid peroxidation, in words [2]",Inhibition of the diazepam-induced amnesia % ([4]; 0.1 mg/kg p.o.),Inhibition of the diazepam-induced amnesia % ([4]; 10.0 mg/kg p.o.),inhibition of NADPH-induced lipid peroxidation relative to silymarin (times as strongly) [3],"antiamnesic activity, in words [4]","antioxidant effect in NADPH-induced lipid peroxidation, in words [3]"
"Cc1c(C)c2c(c(C)c1O)CCC(C)(CCCC(C)CCCC(C)CCCC(C)C)O2 (racemic) [Vitamin E, 2,5,7,8-tetramethyl-2-(4',8',12'-trimethyltridecyl)-6-chromanol, reference compound]",70%,17.8 mg/kg,less active in the same dose,12.1 µM,406 µM,–,–,–,–,–,–
"CC[C@@]12C=C(C(=O)OCCO)n3c4c(c5ccccc53)CCN(CCC1)[C@@H]42 [Compound 1010885, (-)-trans apovincaminic acid 2-hydroxyethyl ester(3β,16α)]",60%,–,–,15.5 µM,9.7 µM,more strongly than idebenone,74%,65%,about 20 times,–,–
"CC[C@]12C=C(C(=O)OCCOC(C)=O)n3c4c(c5ccccc53)CCN(CCC1)[C@H]42 [Compound 1010886, (+)-trans apovincaminic acid 2-(acetoxy)ethyl ester(3α,16β)hydrochloride]",–,–,–,7.7 µM and < 10 µM,7.6 µM and < 10 µM,about twice as active as idebenone or DL-α-tocopherol,72%,44%,about 20 times,particularly effective,–
"CC[C@]12C=C(C(=O)OCCO)n3c4c(c5ccccc53)CCN(CCC1)[C@H]42 [Compound 1010887, (+)-trans apovincaminic acid 2-hydroxyethyl ester(3α,16β)]",–,–,–,7.2 µM,12.6 µM,about twice as active as idebenone or DL-α-tocopherol,50%,56%,about 20 times,particularly effective,–
"CC[C@@]12C=C(C(=O)OCCOC(=O)c3ccccc3)n3c4c(c5ccccc53)CCN(CCC1)[C@@H]42 [Compound 1010960, (-)-trans apovincaminic acid 2-(benzoyloxy)ethyl ester(3β,16α)hydrochloride]",10 to 30%,–,–,5.7 µM and < 10 µM,7.4 µM and < 10 µM,about twice as active as idebenone or DL-α-tocopherol,0%,0%,about 20 times,–,–
"CC[C@@]12C=C(C(=O)OCCOC(=O)c3ccc(Cl)cc3)n3c4c(c5ccccc53)CCN(CCC1)[C@@H]42 [Compound 1010961, (-)-trans apovincaminic acid 2-(4-chlorobenzoyloxy)ethyl ester(3β,16α)methanesulfonate]",60%,–,–,5.3 µM and < 10 µM,5.9 µM and < 10 µM,about twice as active as idebenone or DL-α-tocopherol,3%,15%,–,–,comparable to that of idebenone
"CCC(=O)OCCOC(=O)C1=C[C@]2(CC)CCCN3CCc4c(n1c1ccccc41)[C@H]32 [Compound 1010962, (-)-trans apovincaminic acid 2-(propionyloxyethyl)ester(3β,16α)hydrochloride]",40%,–,–,5.7 µM and < 10 µM,7.5 µM and < 10 µM,about twice as active as idebenone or DL-α-tocopherol,16%,4%,about 20 times,–,–
"CC[C@@]12C=C(C(=O)OCCOC(=O)c3cc(OC)c(OC)c(OC)c3)n3c4c(c5ccccc53)CCN(CCC1)[C@@H]42 [Compound 1011005, (-)-trans apovincaminic acid 2-(3,4,5-trimethoxybenzoyloxy)-ethyl ester(3β,16α)hydrochloride]",70%,–,–,11.9 µM,10.3 µM,–,–,–,about 20 times,–,–
"CC[C@]12C=C(C(=O)OCCOC(=O)c3ccccc3)n3c4c(c5ccccc53)CCN(CCC1)[C@H]42 [Compound 1011036, (-)-trans apovincaminic acid 2-(benzoyloxy)ethyl ester(3α,16β)hydrochloride]",50%,–,–,9.3 µM and < 10 µM,7.7 µM and < 10 µM,about twice as active as idebenone or DL-α-tocopherol,23%,16%,about 20 times,–,–
"CC[C@]12C=C(C(=O)OCCOC(=O)c3ccc(Cl)cc3)n3c4c(c5ccccc53)CCN(CCC1)[C@H]42 [Compound 1011037, (+)-trans apovincaminic acid 2-(4-chloro-benzoyloxy)-ethyl ester(3α,16β)methanesulfonate]",50%,–,–,11.4 µM,3.2 µM,–,–,–,–,–,comparable to that of idebenone
"CC[C@]12C=C(C(=O)OCCOC(=O)c3cc(OC)c(OC)c(OC)c3)n3c4c(c5ccccc53)CCN(CCC1)[C@H]42 [Compound 1011047, (+)-trans apovincaminic acid 2-(3,4,5-trimethoxybenzoyloxy)ethyl ester(3α,16β)]",50%,–,–,16.1 µM,5.9 µM,more strongly than idebenone,–,–,–,–,comparable to that of idebenone
"CC[C@@]12C=C(C(=O)OCCOC(=O)c3cccs3)n3c4c(c5ccccc53)CCN(CCC1)[C@@H]42 [Compound 2705283, (-)-trans apovincaminic acid 2-(2-thiophenoyloxi)ethyl ester(3β,16α)monohydrochloride]",–,–,–,6.8 µM,11.2 µM,about twice as active as idebenone or DL-α-tocopherol,–,–,about 20 times,–,–
"CC[C@@]12C=C(C(=O)OCCOC(=O)c3ccc([N+](=O)[O-])cc3)n3c4c(c5ccccc53)CCN(CCC1)[C@@H]42 [Compound 2705284, (-)-trans apovincaminic acid 2-(4-nitrobenzoyloxy)ethyl ester(3β,16α)]",–,–,–,6.8 µM,20.4 µM,about twice as active as idebenone or DL-α-tocopherol,–,–,–,–,–
"COC1=C(OC)C(=O)C(CCCCCCCCCCO)=C(C)C1=O [Idebenone, 6-(10-hydroxydecyl)-2,3-dimethoxy-5-methyl-1,4-benzoquinone, reference compound]",40%,4.5 mg/kg,less active in the same dose,18.9 µM,1.2 µM,–,–,–,–,–,–
"CCOC(=O)C1=C[C@]2(CC)CCCN3CCc4c(n1c1ccccc41)[C@@H]32 [Vinpocetine, reference compound]",–,–,–,–,–,–,0%,123%,–,–,–
"(-)-Bis-trans apovincaminic acid ethyleneglycol ester(3β,16β)dihydrochloride [Compound 1011008]",–,–,–,21.2 µM,6 µM,exceeded that of silymarin,–,–,–,–,comparable to that of idebenone
